Reference: ChEMBL document CHEMBL4507316 (2021)

Tests used:
[1] = system: Leucine-rich repeat serine/threonine-protein kinase 2 (Homo sapiens), Q5S007 [G2019S]; assay: LRRK2 G2019S ProQinase selectivity panel; details: Compound concentration 1.0 uM
[2] = system: Tyrosine-protein kinase ABL1 (Homo sapiens), P00519 [Q252H]; assay: ABL1 Q252H ProQinase selectivity panel; details: Compound concentration 1.0 uM
[3] = target: CDK1/Cyclin E (Homo sapiens) (UniProt P06493+P24864); assay: CDK1/CycE ProQinase selectivity panel; format: protein-complex assay; details: Compound concentration 1.0 uM
[4] = system: Hepatocyte growth factor receptor (Homo sapiens), P08581 [Y1230C]; assay: MET Y1230C ProQinase selectivity panel; details: Compound concentration 1.0 uM
[5] = target: Serine/threonine-protein kinase 3 (Homo sapiens) (UniProt Q13188); assay: MST2 ProQinase selectivity panel; details: Compound concentration 1.0 uM
Serine/threonine-protein kinase 3 (Homo sapiens), sequence (Q13188 whole entry): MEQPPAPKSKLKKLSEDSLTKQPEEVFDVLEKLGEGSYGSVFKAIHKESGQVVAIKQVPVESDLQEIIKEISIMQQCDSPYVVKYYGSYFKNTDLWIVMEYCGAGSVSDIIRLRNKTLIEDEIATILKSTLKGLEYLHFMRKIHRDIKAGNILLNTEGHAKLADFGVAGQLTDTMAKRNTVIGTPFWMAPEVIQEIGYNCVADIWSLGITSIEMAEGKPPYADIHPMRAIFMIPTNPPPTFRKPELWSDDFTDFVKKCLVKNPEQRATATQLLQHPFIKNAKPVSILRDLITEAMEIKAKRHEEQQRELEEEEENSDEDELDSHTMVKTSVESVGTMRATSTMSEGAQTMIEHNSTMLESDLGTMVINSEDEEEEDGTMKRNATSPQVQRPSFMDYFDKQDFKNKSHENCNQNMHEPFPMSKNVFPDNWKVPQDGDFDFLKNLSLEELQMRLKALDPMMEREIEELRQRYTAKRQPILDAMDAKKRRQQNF

[6] = target: Serine/threonine-protein kinase Chk2 (Homo sapiens) (UniProt O96017); assay: CHK2 ProQinase selectivity panel; details: Compound concentration 1.0 uM
[7] = target: STE20/SPS1-related proline-alanine-rich protein kinase (Homo sapiens) (UniProt Q9UEW8); assay: STK39 ProQinase selectivity panel; details: Compound concentration 1.0 uM
[8] = system: Tyrosine-protein kinase ABL1 (Homo sapiens), P00519 [T315I]; assay: ABL1 T315I ProQinase selectivity panel; details: Compound concentration 1.0 uM
[9] = target: Muscle, skeletal receptor tyrosine-protein kinase (Homo sapiens) (UniProt O15146); assay: MUSK ProQinase selectivity panel; details: Compound concentration 1.0 uM
[10] = target: D(2) dopamine receptor (Homo sapiens) (UniProt P14416); details: Compound concentration 10.0 uM
[11] = target: Serine/threonine-protein kinase Nek2 (Homo sapiens) (UniProt P51955); assay: NEK2 ProQinase selectivity panel; details: Compound concentration 1.0 uM
[12] = system: Epidermal growth factor receptor (Homo sapiens), P00533 [G719S]; assay: EGF-R G719S ProQinase selectivity panel; details: Compound concentration 1.0 uM
[13] = target: PAS domain-containing serine/threonine-protein kinase (Homo sapiens) (UniProt Q96RG2); assay: PASK ProQinase selectivity panel; details: Compound concentration 1.0 uM
[14] = target: Dual specificity protein kinase CLK4 (Homo sapiens) (UniProt Q9HAZ1); assay: CLK4 ProQinase selectivity panel; details: Compound concentration 1.0 uM
[15] = target: Casein kinase II subunit alpha (Homo sapiens) (UniProt P68400); assay: CK2-alpha1 ProQinase selectivity panel; details: Compound concentration 1.0 uM
[16] = target: Serine/threonine-protein kinase Nek11 (Homo sapiens) (UniProt Q8NG66); assay: NEK11 ProQinase selectivity panel; details: Compound concentration 1.0 uM
[17] = target: Protein kinase C gamma type (Homo sapiens) (UniProt P05129); assay: PKC-gamma ProQinase selectivity panel; details: Compound concentration 1.0 uM
[18] = target: Megakaryocyte-associated tyrosine-protein kinase (Homo sapiens) (UniProt P42679); assay: MATK ProQinase selectivity panel; details: Compound concentration 1.0 uM
[19] = target: Tyrosine-protein kinase BTK (Homo sapiens) (UniProt Q06187); assay: BTK ProQinase selectivity panel; details: Compound concentration 1.0 uM
Tyrosine-protein kinase BTK (Homo sapiens), sequence (Q06187 whole entry): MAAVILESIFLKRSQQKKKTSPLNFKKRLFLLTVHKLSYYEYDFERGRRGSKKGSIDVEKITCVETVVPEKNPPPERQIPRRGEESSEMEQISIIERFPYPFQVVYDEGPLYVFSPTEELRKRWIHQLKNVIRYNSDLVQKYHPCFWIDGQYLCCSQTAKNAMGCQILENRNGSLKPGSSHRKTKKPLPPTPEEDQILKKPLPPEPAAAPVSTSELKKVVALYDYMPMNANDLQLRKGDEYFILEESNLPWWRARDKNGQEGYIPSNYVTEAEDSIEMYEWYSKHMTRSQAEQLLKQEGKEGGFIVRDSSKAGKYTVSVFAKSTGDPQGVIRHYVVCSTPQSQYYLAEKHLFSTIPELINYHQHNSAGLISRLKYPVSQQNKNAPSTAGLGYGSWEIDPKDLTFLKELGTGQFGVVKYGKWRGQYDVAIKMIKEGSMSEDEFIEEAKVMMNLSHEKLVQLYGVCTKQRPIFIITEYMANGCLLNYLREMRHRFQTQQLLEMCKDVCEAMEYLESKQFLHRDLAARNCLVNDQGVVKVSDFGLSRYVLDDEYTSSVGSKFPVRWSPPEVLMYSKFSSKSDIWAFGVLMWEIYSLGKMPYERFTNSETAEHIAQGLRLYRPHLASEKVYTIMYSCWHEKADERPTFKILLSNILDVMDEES

[20] = target: Ribosomal protein S6 kinase alpha-1 (Homo sapiens) (UniProt Q15418); assay: RPS6KA1 ProQinase selectivity panel; details: Compound concentration 1.0 uM
[21] = target: Ribosomal protein S6 kinase alpha-2 (Homo sapiens) (UniProt Q15349); assay: RPS6KA2 ProQinase selectivity panel; details: Compound concentration 1.0 uM
[22] = target: Serine/threonine-protein kinase B-raf (Homo sapiens) (UniProt P15056); assay: B-RAF wt ProQinase selectivity panel; details: Compound concentration 1.0 uM
[23] = target: G protein-coupled receptor kinase 4 (Homo sapiens) (UniProt P32298); assay: GRK4 ProQinase selectivity panel; details: Compound concentration 1.0 uM
[24] = target: Sigma intracellular receptor 2 (Homo sapiens, UniProt Q5BJF2); assay: GPCRScan assay: inhibition of Sigma 2; set-up: radioligand conc. used [nm] 5.0, parental cells HEKT
Sigma intracellular receptor 2, sequence (Q5BJF2 whole entry): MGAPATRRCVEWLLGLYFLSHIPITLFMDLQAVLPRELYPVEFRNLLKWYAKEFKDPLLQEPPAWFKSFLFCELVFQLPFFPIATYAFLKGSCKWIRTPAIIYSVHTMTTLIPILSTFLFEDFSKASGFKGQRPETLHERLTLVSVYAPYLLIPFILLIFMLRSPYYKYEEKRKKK

[25] = target: Delta-type opioid receptor (Homo sapiens) (UniProt P41143); details: Compound concentration 10.0 uM
[26] = target: Serine/threonine-protein kinase mTOR (Homo sapiens) (UniProt P42345); assay: mTOR ProQinase selectivity panel; details: Compound concentration 1.0 uM
[27] = system: Hepatocyte growth factor receptor (Homo sapiens), P08581 [D1228H]; assay: MET D1228H ProQinase selectivity panel; details: Compound concentration 1.0 uM
Hepatocyte growth factor receptor (Homo sapiens), P08581 [D1228H], sequence (P08581 whole entry D1228H): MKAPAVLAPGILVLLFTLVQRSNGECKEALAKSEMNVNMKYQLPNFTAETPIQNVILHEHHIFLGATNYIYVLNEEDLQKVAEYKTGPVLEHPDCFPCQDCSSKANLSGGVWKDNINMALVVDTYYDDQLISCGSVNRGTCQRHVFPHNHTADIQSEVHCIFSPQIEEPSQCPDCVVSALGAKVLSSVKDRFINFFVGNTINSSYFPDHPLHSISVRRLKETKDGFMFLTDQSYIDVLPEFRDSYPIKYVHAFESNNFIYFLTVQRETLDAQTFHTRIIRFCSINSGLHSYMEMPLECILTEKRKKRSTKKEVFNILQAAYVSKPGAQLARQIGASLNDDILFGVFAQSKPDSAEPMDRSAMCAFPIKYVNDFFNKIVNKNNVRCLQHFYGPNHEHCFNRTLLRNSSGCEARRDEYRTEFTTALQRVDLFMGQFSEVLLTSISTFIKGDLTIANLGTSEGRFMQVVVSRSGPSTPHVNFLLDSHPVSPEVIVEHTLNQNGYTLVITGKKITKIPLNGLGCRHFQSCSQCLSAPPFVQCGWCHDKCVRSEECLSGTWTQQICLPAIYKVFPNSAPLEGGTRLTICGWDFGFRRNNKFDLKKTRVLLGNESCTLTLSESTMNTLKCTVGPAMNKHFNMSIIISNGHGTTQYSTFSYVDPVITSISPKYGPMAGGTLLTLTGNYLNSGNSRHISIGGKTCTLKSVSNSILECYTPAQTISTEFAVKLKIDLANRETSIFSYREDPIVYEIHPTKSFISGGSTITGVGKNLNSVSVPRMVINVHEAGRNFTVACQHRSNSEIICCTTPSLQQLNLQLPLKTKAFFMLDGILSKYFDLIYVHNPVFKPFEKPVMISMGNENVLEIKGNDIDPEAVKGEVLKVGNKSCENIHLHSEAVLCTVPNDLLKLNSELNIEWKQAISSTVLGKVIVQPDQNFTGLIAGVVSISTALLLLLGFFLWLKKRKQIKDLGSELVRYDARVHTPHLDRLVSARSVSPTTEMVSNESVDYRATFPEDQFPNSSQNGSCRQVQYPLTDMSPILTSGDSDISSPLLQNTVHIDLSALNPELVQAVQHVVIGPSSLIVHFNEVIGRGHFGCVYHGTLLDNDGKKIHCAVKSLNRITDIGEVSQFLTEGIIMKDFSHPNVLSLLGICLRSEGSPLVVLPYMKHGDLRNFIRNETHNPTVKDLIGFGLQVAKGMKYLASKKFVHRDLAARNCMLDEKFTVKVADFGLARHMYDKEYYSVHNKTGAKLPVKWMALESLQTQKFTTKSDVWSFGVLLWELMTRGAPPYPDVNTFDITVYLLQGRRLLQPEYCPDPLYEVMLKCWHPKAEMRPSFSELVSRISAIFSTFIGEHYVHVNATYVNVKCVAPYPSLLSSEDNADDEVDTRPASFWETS

[28] = target: Cyclin-dependent kinase 16 (Homo sapiens) (UniProt Q00536); assay: PCTAIRE1 ProQinase selectivity panel; details: Compound concentration 1.0 uM
Cyclin-dependent kinase 16 (Homo sapiens), sequence (Q00536 whole entry): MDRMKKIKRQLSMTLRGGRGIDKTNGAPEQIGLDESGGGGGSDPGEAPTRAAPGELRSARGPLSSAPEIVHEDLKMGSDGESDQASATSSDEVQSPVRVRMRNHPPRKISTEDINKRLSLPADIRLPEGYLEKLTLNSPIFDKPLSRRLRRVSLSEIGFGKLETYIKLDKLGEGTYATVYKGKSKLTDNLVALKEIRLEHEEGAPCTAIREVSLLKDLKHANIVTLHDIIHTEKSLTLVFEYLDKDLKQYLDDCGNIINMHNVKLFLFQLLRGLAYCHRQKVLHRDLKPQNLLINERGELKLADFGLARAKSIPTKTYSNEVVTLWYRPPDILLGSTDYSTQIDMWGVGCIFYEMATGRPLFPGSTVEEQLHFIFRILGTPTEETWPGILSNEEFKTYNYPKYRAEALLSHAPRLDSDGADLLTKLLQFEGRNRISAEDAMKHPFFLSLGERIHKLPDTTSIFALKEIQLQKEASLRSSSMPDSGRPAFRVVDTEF

[29] = target: Casein kinase II subunit alpha' (Homo sapiens) (UniProt P19784); assay: CK2-alpha2 ProQinase selectivity panel; details: Compound concentration 1.0 uM
[30] = target: Mu-type opioid receptor (Homo sapiens) (UniProt P35372); details: Compound concentration 10.0 uM
[31] = target: MAP/microtubule affinity-regulating kinase 3 (Homo sapiens) (UniProt P27448); assay: MARK3 ProQinase selectivity panel; details: Compound concentration 1.0 uM
[32] = target: G protein-coupled receptor kinase 5 (Homo sapiens) (UniProt P34947); assay: GRK5 ProQinase selectivity panel; details: Compound concentration 1.0 uM
G protein-coupled receptor kinase 5 (Homo sapiens), sequence (P34947 whole entry, looked up): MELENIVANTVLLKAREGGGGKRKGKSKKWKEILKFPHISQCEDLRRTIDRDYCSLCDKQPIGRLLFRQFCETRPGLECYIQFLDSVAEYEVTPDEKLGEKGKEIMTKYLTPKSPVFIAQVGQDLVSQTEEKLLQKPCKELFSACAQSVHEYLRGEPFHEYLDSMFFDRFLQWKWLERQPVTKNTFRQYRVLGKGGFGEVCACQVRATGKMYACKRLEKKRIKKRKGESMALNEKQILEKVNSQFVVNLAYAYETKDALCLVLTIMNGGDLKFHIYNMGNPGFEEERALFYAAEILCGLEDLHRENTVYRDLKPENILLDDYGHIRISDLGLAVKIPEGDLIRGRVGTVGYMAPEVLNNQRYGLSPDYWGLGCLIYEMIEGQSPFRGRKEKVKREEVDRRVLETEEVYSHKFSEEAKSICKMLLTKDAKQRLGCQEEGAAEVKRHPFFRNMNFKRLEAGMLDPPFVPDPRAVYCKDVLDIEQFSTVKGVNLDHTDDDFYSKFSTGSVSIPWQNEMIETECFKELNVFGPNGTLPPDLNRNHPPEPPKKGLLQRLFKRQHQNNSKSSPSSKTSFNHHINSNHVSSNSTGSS

[33] = target: cAMP-dependent protein kinase catalytic subunit PRKX (Homo sapiens) (UniProt P51817); assay: PRKX ProQinase selectivity panel; details: Compound concentration 1.0 uM
[34] = target: Protein kinase C alpha type (Homo sapiens) (UniProt P17252); assay: PKC-alpha ProQinase selectivity panel; details: Compound concentration 1.0 uM
[35] = target: Bone morphogenetic protein receptor type-1A (Homo sapiens) (UniProt P36894); assay: BMPR1A ProQinase selectivity panel; details: Compound concentration 1.0 uM
[36] = target: Ephrin type-A receptor 1 (Homo sapiens) (UniProt P21709); assay: EPHA1 ProQinase selectivity panel; details: Compound concentration 1.0 uM
[37] = target: SRSF protein kinase 1 (Homo sapiens) (UniProt Q96SB4); assay: SRPK1 ProQinase selectivity panel; details: Compound concentration 1.0 uM
[38] = target: Serine/threonine-protein kinase 4 (Homo sapiens) (UniProt Q13043); assay: MST1 ProQinase selectivity panel; details: Compound concentration 1.0 uM
Serine/threonine-protein kinase 4 (Homo sapiens), sequence (Q13043 whole entry): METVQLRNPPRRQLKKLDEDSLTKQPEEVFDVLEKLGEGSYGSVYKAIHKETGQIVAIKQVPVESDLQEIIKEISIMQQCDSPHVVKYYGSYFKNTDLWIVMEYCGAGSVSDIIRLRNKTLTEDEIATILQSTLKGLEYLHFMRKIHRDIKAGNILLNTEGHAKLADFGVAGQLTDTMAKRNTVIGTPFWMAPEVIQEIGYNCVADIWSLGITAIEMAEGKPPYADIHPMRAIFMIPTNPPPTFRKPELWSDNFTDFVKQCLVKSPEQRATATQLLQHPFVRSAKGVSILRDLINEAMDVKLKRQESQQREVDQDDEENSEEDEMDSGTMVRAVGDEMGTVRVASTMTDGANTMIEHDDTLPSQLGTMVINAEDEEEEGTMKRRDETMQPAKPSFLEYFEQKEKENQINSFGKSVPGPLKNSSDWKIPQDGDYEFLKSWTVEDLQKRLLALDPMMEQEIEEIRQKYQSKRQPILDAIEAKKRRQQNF

[39] = target: Glycogen synthase kinase-3 beta (Homo sapiens) (UniProt P49841); assay: GSK3-beta ProQinase selectivity panel; details: Compound concentration 1.0 uM
[40] = target: Ephrin type-A receptor 2 (Homo sapiens) (UniProt P29317); assay: EPHA2 ProQinase selectivity panel; details: Compound concentration 1.0 uM
[41] = target: Sodium-dependent noradrenaline transporter (Homo sapiens) (UniProt P23975); details: Compound concentration 10.0 uM
Sodium-dependent noradrenaline transporter (Homo sapiens), sequence (P23975 whole entry): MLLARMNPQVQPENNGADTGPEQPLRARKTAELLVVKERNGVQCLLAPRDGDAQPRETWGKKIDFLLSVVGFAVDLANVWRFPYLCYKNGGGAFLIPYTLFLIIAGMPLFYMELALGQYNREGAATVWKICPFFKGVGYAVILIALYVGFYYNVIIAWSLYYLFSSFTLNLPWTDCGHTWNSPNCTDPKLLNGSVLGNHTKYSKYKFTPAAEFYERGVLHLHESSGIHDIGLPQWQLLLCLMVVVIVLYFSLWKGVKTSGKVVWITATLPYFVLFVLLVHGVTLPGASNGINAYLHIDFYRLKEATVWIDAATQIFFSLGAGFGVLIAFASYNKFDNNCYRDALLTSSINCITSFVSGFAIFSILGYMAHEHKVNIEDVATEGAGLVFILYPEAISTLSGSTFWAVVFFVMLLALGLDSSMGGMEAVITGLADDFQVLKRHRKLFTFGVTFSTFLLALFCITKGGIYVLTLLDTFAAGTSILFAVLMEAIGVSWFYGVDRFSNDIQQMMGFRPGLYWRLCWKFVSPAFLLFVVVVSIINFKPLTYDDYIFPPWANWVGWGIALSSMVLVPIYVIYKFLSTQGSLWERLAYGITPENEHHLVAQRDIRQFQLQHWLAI

[42] = target: D(4) dopamine receptor (Homo sapiens) (UniProt P21917); details: Compound concentration 10.0 uM
[43] = target: Tyrosine-protein kinase JAK3 (Homo sapiens) (UniProt P52333); assay: JAK3 ProQinase selectivity panel; details: Compound concentration 1.0 uM
[44] = target: CDK7/Cyclin H/MNAT1 (Homo sapiens) (UniProt P51946+P50613+P51948); assay: CDK7/CycH/MAT1 ProQinase selectivity panel; format: protein-complex assay; details: Compound concentration 1.0 uM
[45] = target: 5-hydroxytryptamine receptor 1E (Homo sapiens) (UniProt P28566); details: Compound concentration 10.0 uM
[46] = target: Ephrin type-A receptor 5 (Homo sapiens) (UniProt P54756); assay: EPHA5 ProQinase selectivity panel; details: Compound concentration 1.0 uM
[47] = target: 5-hydroxytryptamine receptor 1D (Homo sapiens) (UniProt P28221); details: Compound concentration 10.0 uM
[48] = target: Tyrosine-protein kinase Fgr (Homo sapiens) (UniProt P09769); assay: FGR ProQinase selectivity panel; details: Compound concentration 1.0 uM
[49] = target: Serine/threonine-protein kinase PAK 4 (Homo sapiens) (UniProt O96013); assay: PAK4 ProQinase selectivity panel; details: Compound concentration 1.0 uM

- % Residual activity with Skepinone-L [1]: 77%
- % Residual activity with Skepinone-L [2]: 95%
- % Residual activity with Skepinone-L [3]: 87%
- % Residual activity with Skepinone-L [4]: 97%
- % Residual activity with Skepinone-L [5]: 83%
- % Residual activity with Skepinone-L [6]: 89%
- % Residual activity with Skepinone-L [7]: 53%
- % Residual activity with Skepinone-L [8]: 93%
- % Residual activity with Skepinone-L [9]: 106%
- inhibition [10]: 7.19%
- % Residual activity with Skepinone-L [11]: 85%
- % Residual activity with Skepinone-L [12]: 96%
- % Residual activity with Skepinone-L [13]: 88%
- % Residual activity with Skepinone-L [14]: 100%
- % Residual activity with Skepinone-L [15]: 95%
- % Residual activity with Skepinone-L [16]: 113%
- % Residual activity with Skepinone-L [17]: 99%
- % Residual activity with Skepinone-L [18]: 111%
- % Residual activity with Skepinone-L [19]: 100%
- % Residual activity with Skepinone-L [20]: 89%
- % Residual activity with Skepinone-L [21]: 90%
- % Residual activity with Skepinone-L [22]: 112%
- % Residual activity with Skepinone-L [23]: 100%
- Ki ([24]; read-out: Ki): 3.36 µM
- Ki ([24]; read-out: pKi (converted)): 3.24 µM
- inhibition [25]: 10.3%
- % Residual activity with Skepinone-L [26]: 97%
- % Residual activity with Skepinone-L [27]: 97%
- % Residual activity with Skepinone-L [28]: 79%
- % Residual activity with Skepinone-L [29]: 87%
- inhibition [30]: 22.5%
- % Residual activity with Skepinone-L [31]: 95%
- % Residual activity with Skepinone-L [32]: 121%
- % Residual activity with Skepinone-L [33]: 79%
- % Residual activity with Skepinone-L [34]: 96%
- % Residual activity with Skepinone-L [35]: 100%
- % Residual activity with Skepinone-L [36]: 115%
- % Residual activity with Skepinone-L [37]: 100%
- % Residual activity with Skepinone-L [38]: 71%
- % Residual activity with Skepinone-L [39]: 97%
- % Residual activity with Skepinone-L [40]: 119%
- inhibition [41]: 29.4%
- inhibition [42]: 9.38%
- % Residual activity with Skepinone-L [43]: 103%
- % Residual activity with Skepinone-L [44]: 107%
- inhibition [45]: 18.8%
- % Residual activity with Skepinone-L [46]: 132%
- inhibition [47]: 23.8%
- % Residual activity with Skepinone-L [48]: 100%
- % Residual activity with Skepinone-L [49]: 88%
Structure (SMILES): O=C1c2ccc(Nc3ccc(F)cc3F)cc2CCc2ccc(OC[C@H](O)CO)cc21 [Skepinone-L]
